# Reference: patent US9518038B2, “Condensation product of theanine derivative and carboxylic acid coumarin derivative, its intermediate, preparation method and use thereof” (SHANDONG YINGDONG YINGHAO BIOTECHNOLOGY, INC., priority 2012, dated 2016)
# Where two headings read alike, the source gives them in different places.
# Legend:
# [1] = system: human breast cancer cells MCF-7; experiment: MTT growth inhibition, MCF-7 cells; assay type: cell-based; details: MCF7, 72 h after treatment, read-out: Drug concentration (IC50) at which 50% cancer cells survived
# Description: (§1) Cell lines and cell culture: human lung cancer cells A549 and H460, human breast cancer cells MCF-7 and MDA-MB-231, human gastric cancer cells BGC-823, human prostate cancer cells PC-3, human chronic leukemia cells K562, human lymphoma cells U937, human liver cancer cells SMMC7721 and HepG2, human colon cancer cells HT29, human pancreatic cancer cells PANC-1 and BxPC3, human cervical cancer Hela cell lines, human brain tumor cells Daoy, human neuroma cells D54 and human oral epidermoid cancer cells KBV200 line with strong drug resistance, mouse melanoma cells B16, and highly metastatic Lewis lung cancer cell lines were purchased from American Type Culture Collection of the U.S. These cells were cultured with DMEM and RPMI-1640 culture solutions separately.
# (§2) The procedure was as follows:
# (§3) (1) 0.25% trypsin was used to digest cancer cells in a logarithmic growth phase to prepare a single-cell suspension, the concentration of cells was adjusted to 5×10^4/mL, and the adjusted suspension was inoculated into a 96-well culture plate with 100 μl per well;
# (§4) (2) The culture plate was transferred into a 37° C. incubator with a saturated humidity and 5% of CO2 and cultured for 24 h; the compounds and the intermediates thereof obtained in embodiments 1-7 and the compound as represented by formula (IIIa) or the positive control anti-cancer drug with the concentration of 1-1000 μM/L were added to enable the final concentration to be 0.1-1500 μM/L. Control wells (only added with 200 μl of cell suspension) and drug-free blank control wells (containing the solvent of 0.01% DMSO) were set, each group included 8 wells, and the plate was placed into the 37° C. incubator with saturated humidity and 5% of CO2 for culturing;
# (§5) (3) The 96-well plate was taken out at 48 h and 72 h after dosing, the original culture medium was carefully removed by suction, 100 μl of serum-free DMEM culture medium and 10 μl of MTT (5 mg/mL) solution were added in each well. The plate was continuously cultured for another 4 h and then the culture was terminated;
# (§6) (4) The supernatant in the wells was carefully removed by suction, each well was added with 150 μl of DMSO and shaked at room temperature for 10-15 min to fully dissolve crystals.
# (§7) (5) Colorimetric analysis: the wavelength was selected as 570 nm, the light absorbance (A value) of each well was determined on the microplate reader and the results were recorded; the experiment was repeated for three times;
# (§8) (6) the experimental results were calculated according to the following formula: relative survival rate=(A value of each experimental group/A value of cell control group)×100%
# (§9) Calculation of median-effect concentration (IC50, namely the drug concentration at which the inhibition rate is 50%, also known as half inhibitory concentration):
# (§10) IC50 of the detected component was calculated by using a regression equation.
# [2] = system: human cervical cancer cells Hela xenograft; experiment: In-vivo growth of Hela xenografts in nude mice; design: species or system BALB/c nude mice; details: Mus musculus, ip, vs DMSO solvent control, read-out: Curative effect (inhibition rate %) of tumor weight; for inhibition in vivo at 60 mg/kg: 60 mg/kg intraperitoneal once a day; for inhibition in vivo at 90 mg/kg: 90 mg/kg intraperitoneal once a day
# Method: (§11) RPMI1640 and DMEM culture solutions: Hyclone Company; inactivated fetal bovine serum: Hyclone Company, preserved at −20° C.; trypsin: Amersco Company; and 0.4% trypan blue: Sigma Company;
# (§12) (3) Observation of growth of tumors in nude mice: the activities (including food intake, traits of urine and stool, mental state and the like) of the nude mice and the tumor growth time and growth situation of the transplanted tumors were observed every day, the body weight and the size of the tumors were measured once every 2-3 days. The long diameter a and the short diameter b (mm) of each tumor were measured by a vernier caliper to calculate the volume, wherein the volume V=π1/2·ab^2 (mm^3);
# (§13) (4) sacrifice of animals: the mice were anesthetized and photoed after treatment experiments; the nude mice were sacrificed by breaking neck, the tumor tissues were stripped under sterile conditions and the weight of the tumors was weighed; and the effects of the drugs on pathology and toxicity of the various organs and tissues were detected.
# [3] = system: nucleoprotein factor NF-κB (p65)-DNA binding activity; experiment: NF-κB (p65)-DNA binding activity (EMSA); assay type: cell-based
# Description: The in-vitro experiment of the inhibitory effect against the NF-κB(p65)-DNA binding activity was applied with the chemiluminescent EMSA kit of Pierce Biotechnology Company of the U.S., the experimental method was strictly operated according to the description of the kit and the specific procedure were as follows:
# (1) Preparation of EMSA gel
# The cells treated by the drugs were extracted by the nucleoprotein extract solution (provided by Beyotime Biotechnology of Institute) to obtain the nucleoprotein extracts, and 10 μg/pipe of the nucleoprotein extracts were respectively used for sample reaction and electrophoresis detection and analysis shown in the following table.
# (2) Pre-electrophoresis: the gel was fixed in an electrophoresis tank, which was filled with a 0.5×TBE electrophoresis buffer solution, and electrophoresed under 10V/cm for 90 min. The probe binding reaction was as follows:
# The components were added in sequence into the EP pipe according to the above table, uniformly mixed and stood at room temperature for 15 min to eliminate possible non-specific binding of probe and protein. 1 μl of biotin-labeled probe NF-κB was respectively added and stood at room temperature for 20 min.
# (4) Film transfer: the process of transferring the nucleoprotein factors and the binding probe on the EMSA gel to the nylon film was electrically transferred under 380 mA in ice bath for 40 min.
# (5) Ultraviolet cross-linking: the nylon film was placed under a 254 nm ultraviolet lamp and irradiated for 15 min.
# (6) Detection of the biotin-labeled probe by chemiluminescence: the cross-linked nylon film was blocked with the blocking solution, a treated film was subjected to X-ray exposure, developing, and fixation according to the requirements of the kit, and the results were analyzed.
# [4] = system: human breast cancer cells MCF-7 xenograft; experiment: In-vivo growth of MCF-7 xenografts in nude mice; design: species or system BALB/c nude mice; details: Mus musculus, MCF7, ip, vs DMSO solvent control, read-out: Curative effect (inhibition rate %) of tumor weight; for inhibition in vivo at 60 mg/kg: 60 mg/kg intraperitoneal once a day; for inhibition in vivo at 90 mg/kg: 90 mg/kg intraperitoneal once a day
# Method: as §11, §12, §13
# [5] = system: Lewis lung cancer (highly metastatic mouse lung cancer) cells; experiment: Mouse Lewis lung cancer metastasis model; assay type: in vivo, C57/BL6J black mice; details: Lewis lung carcinoma, ip, LLC, vs DMSO solvent control, read-out: tumor lung metastasis inhibition rate % of mouse Lewis lung cancer; for inhibition in vivo at 60 mg/kg: 60 mg/kg intraperitoneal once a day; for inhibition in vivo at 90 mg/kg: 90 mg/kg intraperitoneal once a day
# Method: as §11, §13
# [6] = system: human lung cancer cells A549 xenograft; experiment: In-vivo growth of A549 xenografts in nude mice; design: species or system BALB/c nude mice; details: Mus musculus, ip, vs DMSO solvent control, read-out: Curative effect (inhibition rate %) of tumor weight; for inhibition in vivo at 60 mg/kg: 60 mg/kg intraperitoneal once a day; for inhibition in vivo at 90 mg/kg: 90 mg/kg intraperitoneal once a day
# Method: as §11, §12, §13
# [7] = system: human prostate cancer cells PC-3; experiment: MTT growth inhibition, PC-3 cells; assay type: cell-based; details: 72 h after treatment, read-out: Drug concentration (IC50) at which 50% cancer cells survived
# Description: as §1, §2, §3, §4, §5, §6, §7, §8, §9, §10
# [8] = A549 cells, EMSA, nuclear protein extracts, 48 h, read-out: Effective concentration for 50% inhibition of binding of nucleoprotein factor NF-kB (p65) and DNA
# [9] = MCF7 cells, EMSA, nuclear protein extracts, 48 h, read-out: Effective concentration for 50% inhibition of binding of nucleoprotein factor NF-kB (p65) and DNA
# [10] = MDA-MB231 cells, EMSA, nuclear protein extracts, 48 h, read-out: Effective concentration for 50% inhibition of binding of nucleoprotein factor NF-kB (p65) and DNA
# [11] = SMMC7721 cells, EMSA, nuclear protein extracts, 48 h, read-out: Effective concentration for 50% inhibition of binding of nucleoprotein factor NF-kB (p65) and DNA
# [12] = human liver cancer cells, Lewis lung cancer cells and other cancer cell lines and tumor tissues, read-out: Effective concentration (IC50) for inhibition of NF-κB-DNA binding activity
SMILES,IC50 [1] [µM],inhibition in vivo at 60 mg/kg [2] [%],inhibition in vivo at 90 mg/kg [2] [%],"IC50 [3, 8] [µM]","IC50 [3, 9] [µM]","IC50 [3, 10] [µM]","IC50 [3, 11] [µM]","IC50 [3, 12] [µM]",inhibition in vivo at 60 mg/kg [4] [%],inhibition in vivo at 90 mg/kg [4] [%],inhibition in vivo at 60 mg/kg [5] [%],inhibition in vivo at 90 mg/kg [5] [%],inhibition in vivo at 60 mg/kg [6] [%],inhibition in vivo at 90 mg/kg [6] [%],IC50 [7] [µM],"IC50 ([3]; Lewis lung cancer cells, EMSA, nuclear protein extracts, 48 h, read-out: Effective concentration for 50% inhibition of binding of nucleoprotein factor NF-kB (p65) and DNA) [µM]"
"CCNC(=O)CCC(NC(=O)c1cc2cc(F)ccc2oc1=O)C(=O)OCC (stereo in doubt) [Compound Ie, (R)-2-(6-F-2-oxo-2H-benzopyran-3-carboxamido)-5-ethylamino-5-oxo-pentanoic acid ethyl ester]",115,60.7,70.5,< 120,< 100,< 110,< 121,< 100,66.8,69.8,61.6,70.8,55.5,61.5,127,
"CCNC(=O)CCC(NC(=O)c1cc2cc([N+](=O)[O-])ccc2oc1=O)C(=O)OCC (stereo in doubt) [Compound If, (R)-2-(6-nitro-2-oxo-2H-benzopyran-3-carboxamido)-5-ethylamino-5-oxo-pentanoic acid ethyl ester]",112,50.9,66.8,< 100,< 100,< 100,< 100,< 100,68.6,72.6,67.5,75.8,58.6,64.6,171,
"CCNC(=O)CC[C@H](N)C(=O)OC [Compound IIa, theanine methyl ester]",450,38.7,38.7,,,,,,39.8,41.3,36.8,38.5,29.6,31.7,350,
"CCNC(=O)CC[C@H](N)C(=O)OCC [Compound IIb, theanine ethyl ester]",300,41.7,41.7,,,,,,43.2,46.8,52.3,54.7,33.3,38.6,400,
"CCNC(=O)CCC(NC(=O)c1cc2ccccc2oc1=O)C(=O)OC (stereo not shown) [Compound Ia, methyl 5-ethylamino-5-oxo-2-(2-oxo-2H-benzopyran-3-carboxamido)pentanoate]",220,54.7,62.9,,,,< 125,< 135,50.1,61.3,55.4,60.9,48.6,51.6,146,< 135
"CCNC(=O)CCC(NC(=O)c1cc2ccccc2oc1=O)C(=O)OCC (stereo not shown) [Compound Ib, ethyl 5-ethylamino-5-oxo-2-(2-oxo-2H-benzopyran-3-carboxamido)pentanoate]",103,53.9,63.8,< 135,,,< 120,< 130,52.6,63.8,58.2,69.6,53.6,60.6,125,
"CCNC(=O)CC[C@@H](NC(=O)c1cc2cc(Cl)ccc2oc1=O)C(=O)OCC [Compound Ic, (R)-2-(6-CI-2-oxo-2H-benzopyran-3-carboxamido)-5-ethylamino-5-oxo-pentanoic acid ethyl ester]",95,53.7,65.8,< 125,< 125,< 125,< 125,< 125,58.6,68.8,74.2,79.2,61.6,67.6,105,
"CCNC(=O)CC[C@@H](NC(=O)c1cc2cc(Br)ccc2oc1=O)C(=O)OCC [Compound Id, (R)-2-(6-Br-2-oxo-2H-benzopyran-3-carboxamido)-5-ethylamino-5-oxo-pentanoic acid ethyl ester]",102,57.9,71.9,< 110,< 100,< 100,< 80,< 120,56.6,66.9,69.2,82.5,63.6,69.6,110,
